Experimental data as given in PubChem BioAssay AID1919002 (Molecular Pharmacology Branch, DTP, NCI, 2023).

Tested on: 743489-274-T-PDC complex spheroid growth
Experiment: Anticancer human tumor 743489-274-T-PDC patient-derived renal cell carcinoma cell line growth inhibition [AhR]
Settings: for IC50: curve of first compound; for viability, T/C: stronger effect = lower value
Outline: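 Complex tumor spheroids co-cultured with HUVEC and human MSC stroma; AhR antagonists tested in combination with standard-of-care and investigational agents. Top concentration at or near clinical Cmax (else 10 microM), half-log dilutions; growth expressed as percent test/control.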

[1] = second compound 0.1 µM, first compound 0.0316 µM
[2] = second compound 0.1 µM, first compound 0.1 µM
[3] = second compound 0.1 µM, first compound 0.316 µM
[4] = second compound 0.1 µM, first compound 1 µM
[5] = second compound 0.1 µM, first compound 3.16 µM
[6] = second compound 0.1 µM, first compound 10 µM
[7] = second compound 0.316 µM, first compound 0.0316 µM
[8] = second compound 0.316 µM, first compound 0.1 µM
[9] = second compound 0.316 µM, first compound 0.316 µM
[10] = second compound 0.316 µM, first compound 1 µM
[11] = second compound 0.316 µM, first compound 3.16 µM
[12] = second compound 0.316 µM, first compound 10 µM
[13] = second compound 1 µM, first compound 0.0316 µM
[14] = second compound 1 µM, first compound 0.1 µM
[15] = second compound 1 µM, first compound 0.316 µM
[16] = second compound 1 µM, first compound 1 µM
[17] = second compound 1 µM, first compound 3.16 µM
[18] = second compound 1 µM, first compound 10 µM
[19] = second compound 3.16 µM, first compound 0.0316 µM
[20] = second compound 3.16 µM, first compound 0.1 µM
[21] = second compound 3.16 µM, first compound 0.316 µM
[22] = second compound 3.16 µM, first compound 1 µM
[23] = second compound 3.16 µM, first compound 3.16 µM
[24] = second compound 3.16 µM, first compound 10 µM
[25] = second compound 10 µM, first compound 0.0316 µM
[26] = second compound 10 µM, first compound 0.1 µM
[27] = second compound 10 µM, first compound 0.316 µM
[28] = second compound 10 µM, first compound 1 µM
[29] = second compound 10 µM, first compound 3.16 µM
[30] = second compound 10 µM, first compound 10 µM
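Further: spheroids exposed to agents for 7 days before readout.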
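Wherever viability, T/C is given: 100% = DMSO vehicle control wells.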

In the case of COc1cc(C2c3cc4c(cc3C(OC3OC5COC(C)OC5C(O)C3O)C3COC(=O)C23)OCO4)cc(OC)c1O (stereo not given) + CC(CO)NC(=O)c1cc(-c2ccc(Cl)cc2)nn(-c2cnn(C)c2)c1=O, the IC50 (second compound 0.1 µM) is reported as greater than 10 µM, the IC50 (second compound 0.316 µM) is reported as greater than 10 µM and the IC50 (second compound 1 µM) is reported as greater than 10 µM. The IC50 (second compound 3.16 µM) was greater than 10 µM, the IC50 (second compound 10 µM) was greater than 10 µM and the viability, T/C [1] was 107%. For the same compound, the viability, T/C [2] was 114%, the viability, T/C [3] was 95.1% and the viability, T/C [4] was 95.9%. For the same compound, the viability, T/C [5] was 99.6%, the viability, T/C [6] was 97% and the viability, T/C [7] was 99.3%. It also gave a viability, T/C [8] of 118%, a viability, T/C [9] of 108% and a viability, T/C [10] of 93.5%. The viability, T/C [11] was 92%, the viability, T/C [12] was 90.7% and the viability, T/C [13] was 98.6%. The viability, T/C [14] was 96.4%, the viability, T/C [15] was 101% and the viability, T/C [16] was 103%. It also gave a viability, T/C [17] of 86.6%, a viability, T/C [18] of 94.9% and a viability, T/C [19] of 99.9%. It also gave a viability, T/C [20] of 97%, a viability, T/C [21] of 102% and a viability, T/C [22] of 95.4%. For the same compound, the viability, T/C [23] was 97.7%, the viability, T/C [24] was 90.9% and the viability, T/C [25] was 108%. The viability, T/C [26] was 109%, the viability, T/C [27] was 103% and the viability, T/C [28] was 106%. For the same compound, the viability, T/C [29] was 97% and the viability, T/C [30] was 92.1%.

Compound CC(C)c1c(-c2ccccc2)nc2c(C#N)c[nH]n2c1=O + Cc1ccccc1N=Nc1ccc(NC(=O)c2ccnn2C)c(C)c1 has an IC50 (second compound 0.1 µM) greater than 10 µM, an IC50 (second compound 0.316 µM) greater than 10 µM and an IC50 (second compound 1 µM) greater than 10 µM. For the same compound, the IC50 (second compound 3.16 µM) was greater than 10 µM, the IC50 (second compound 10 µM) was greater than 10 µM and the viability, T/C [1] was 102%. For the same compound, the viability, T/C [2] was 103%, the viability, T/C [3] was 93.3% and the viability, T/C [4] was 96%. It also gave a viability, T/C [5] of 109%, a viability, T/C [6] of 99.4% and a viability, T/C [7] of 102%. It also gave a viability, T/C [8] of 102%, a viability, T/C [9] of 101% and a viability, T/C [10] of 94.1%. The viability, T/C [11] was 100%, the viability, T/C [12] was 91.3% and the viability, T/C [13] was 111%. It also gave a viability, T/C [14] of 93.8%, a viability, T/C [15] of 108% and a viability, T/C [16] of 109%. For the same compound, the viability, T/C [17] was 95.7%, the viability, T/C [18] was 96.2% and the viability, T/C [19] was 94.3%. For the same compound, the viability, T/C [20] was 98.1%, the viability, T/C [21] was 94.5% and the viability, T/C [22] was 103%. For the same compound, the viability, T/C [23] was 104%, the viability, T/C [24] was 90.4% and the viability, T/C [25] was 92.2%. For the same compound, the viability, T/C [26] was 99.2%, the viability, T/C [27] was 104% and the viability, T/C [28] was 93.2%. The viability, T/C [29] was 85.8% and the viability, T/C [30] was 86.9%.

With Nc1ccn(C2OC(CO)C(O)C2(F)F)c(=O)n1 (stereo not given) + CC(CO)NC(=O)c1cc(-c2ccc(Cl)cc2)nn(-c2cnn(C)c2)c1=O the IC50 (second compound 0.1 µM) was greater than 10 µM, the IC50 (second compound 0.316 µM) was greater than 10 µM and the IC50 (second compound 1 µM) was greater than 10 µM. It also gave an IC50 (second compound 3.16 µM) greater than 10 µM, an IC50 (second compound 10 µM) greater than 10 µM and a viability, T/C [1] of 81.9%. It also gave a viability, T/C [2] of 79.7%, a viability, T/C [3] of 71.8% and a viability, T/C [4] of 62.2%. It also gave a viability, T/C [5] of 59.9%, a viability, T/C [6] of 67.7% and a viability, T/C [7] of 80.7%. It also gave a viability, T/C [8] of 73%, a viability, T/C [9] of 70.8% and a viability, T/C [10] of 68.3%. It also gave a viability, T/C [11] of 62.6%, a viability, T/C [12] of 69.9% and a viability, T/C [13] of 84%. The viability, T/C [14] was 68.5%, the viability, T/C [15] was 68.3% and the viability, T/C [16] was 59.5%. For the same compound, the viability, T/C [17] was 70%, the viability, T/C [18] was 71.5% and the viability, T/C [19] was 81.1%. It also gave a viability, T/C [20] of 75.9%, a viability, T/C [21] of 64.4% and a viability, T/C [22] of 64.7%. It also gave a viability, T/C [23] of 76.6%, a viability, T/C [24] of 63.6% and a viability, T/C [25] of 90.2%. The viability, T/C [26] was 82.5%, the viability, T/C [27] was 65.3% and the viability, T/C [28] was 65.1%. It also gave a viability, T/C [29] of 77.2% and a viability, T/C [30] of 74.3%.
